Measurements from patent US20200247897A1, “THERAPEUTIC ANTIBODIES BASED ON MUTATED IGG HEXAMERS” (GENMAB B.V., priority 2017, published 2020).

Columns and labels:
[1] = system: BxPC-3 pancreatic cancer cells; test: 3-days CellTiter-Glo viability assay, BxPC-3; settings: Z-VAD-FMK 5 μM
[2] = system: BxPC-3 pancreatic cancer cells; test: Caspase-Glo 3/7 assay, BxPC-3; format: cell-based, human; settings: 26.6 nM; 1, 2, 4 to 6 hours

Substance: TRAIL: natural DR5 ligand, recombinant human TRAIL/APO-2L
- viability of BxPC-3 cells in presence of pan-caspase inhibitor Z-VAD-FMK [1]: inhibited in the presence of pan-caspase inhibitor Z-VAD-FMK
- caspase-3/7 activation [2]: more rapid and more potent caspase-3/7 activation
